According to BindingDB's records for doi:10.1016/s0960-894x(02)00455-9 (Fukui Research Institute, 2002):

Legend:
[1] = biological target: Nitric oxide synthase, inducible (Homo sapiens, UniProt P35228); assay: ChEBML_89186
From the text: Concentration required to inhibit Inducible nitric oxide synthase over expressed in A549 cells

[2] = biological target: T1, Nitric oxide synthase, endothelial (Homo sapiens, UniProt P29474); assay: ChEBML_64984
T1 sequence (P29474 whole entry): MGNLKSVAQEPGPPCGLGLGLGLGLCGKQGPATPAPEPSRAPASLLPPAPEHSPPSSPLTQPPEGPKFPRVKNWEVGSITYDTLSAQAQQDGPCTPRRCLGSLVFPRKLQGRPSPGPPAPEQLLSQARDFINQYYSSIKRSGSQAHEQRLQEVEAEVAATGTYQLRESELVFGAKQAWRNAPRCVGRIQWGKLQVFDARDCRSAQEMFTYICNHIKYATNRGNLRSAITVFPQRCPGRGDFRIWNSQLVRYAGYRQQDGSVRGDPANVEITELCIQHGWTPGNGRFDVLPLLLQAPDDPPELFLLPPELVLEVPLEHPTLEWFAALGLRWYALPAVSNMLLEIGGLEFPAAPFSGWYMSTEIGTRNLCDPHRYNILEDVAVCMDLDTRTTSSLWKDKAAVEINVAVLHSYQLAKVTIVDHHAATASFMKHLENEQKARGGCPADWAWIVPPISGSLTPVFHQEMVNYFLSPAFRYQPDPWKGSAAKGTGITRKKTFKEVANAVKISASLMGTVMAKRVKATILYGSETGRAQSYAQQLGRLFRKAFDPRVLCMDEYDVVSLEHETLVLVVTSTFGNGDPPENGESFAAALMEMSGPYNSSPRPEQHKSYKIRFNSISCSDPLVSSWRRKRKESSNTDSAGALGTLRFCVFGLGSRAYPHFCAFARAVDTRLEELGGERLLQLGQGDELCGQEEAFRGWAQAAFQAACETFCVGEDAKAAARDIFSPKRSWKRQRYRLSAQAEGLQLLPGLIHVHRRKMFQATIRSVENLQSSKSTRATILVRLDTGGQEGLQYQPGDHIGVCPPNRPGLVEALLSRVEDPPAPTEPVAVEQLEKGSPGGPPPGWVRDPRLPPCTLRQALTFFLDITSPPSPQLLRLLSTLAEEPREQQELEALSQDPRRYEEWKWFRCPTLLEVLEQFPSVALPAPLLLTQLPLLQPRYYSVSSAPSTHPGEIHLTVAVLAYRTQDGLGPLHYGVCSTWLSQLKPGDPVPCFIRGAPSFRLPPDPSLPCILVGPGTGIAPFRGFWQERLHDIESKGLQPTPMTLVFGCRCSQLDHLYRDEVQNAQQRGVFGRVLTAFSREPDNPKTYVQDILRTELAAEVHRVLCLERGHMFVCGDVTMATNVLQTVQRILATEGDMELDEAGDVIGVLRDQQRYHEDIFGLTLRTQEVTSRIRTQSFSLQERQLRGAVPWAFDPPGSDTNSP
From the text: Inhibition of human endothelial Nitric Oxide Synthase expressed in Sf-21 cells

Sequence of Nitric oxide synthase, inducible (P35228 whole entry): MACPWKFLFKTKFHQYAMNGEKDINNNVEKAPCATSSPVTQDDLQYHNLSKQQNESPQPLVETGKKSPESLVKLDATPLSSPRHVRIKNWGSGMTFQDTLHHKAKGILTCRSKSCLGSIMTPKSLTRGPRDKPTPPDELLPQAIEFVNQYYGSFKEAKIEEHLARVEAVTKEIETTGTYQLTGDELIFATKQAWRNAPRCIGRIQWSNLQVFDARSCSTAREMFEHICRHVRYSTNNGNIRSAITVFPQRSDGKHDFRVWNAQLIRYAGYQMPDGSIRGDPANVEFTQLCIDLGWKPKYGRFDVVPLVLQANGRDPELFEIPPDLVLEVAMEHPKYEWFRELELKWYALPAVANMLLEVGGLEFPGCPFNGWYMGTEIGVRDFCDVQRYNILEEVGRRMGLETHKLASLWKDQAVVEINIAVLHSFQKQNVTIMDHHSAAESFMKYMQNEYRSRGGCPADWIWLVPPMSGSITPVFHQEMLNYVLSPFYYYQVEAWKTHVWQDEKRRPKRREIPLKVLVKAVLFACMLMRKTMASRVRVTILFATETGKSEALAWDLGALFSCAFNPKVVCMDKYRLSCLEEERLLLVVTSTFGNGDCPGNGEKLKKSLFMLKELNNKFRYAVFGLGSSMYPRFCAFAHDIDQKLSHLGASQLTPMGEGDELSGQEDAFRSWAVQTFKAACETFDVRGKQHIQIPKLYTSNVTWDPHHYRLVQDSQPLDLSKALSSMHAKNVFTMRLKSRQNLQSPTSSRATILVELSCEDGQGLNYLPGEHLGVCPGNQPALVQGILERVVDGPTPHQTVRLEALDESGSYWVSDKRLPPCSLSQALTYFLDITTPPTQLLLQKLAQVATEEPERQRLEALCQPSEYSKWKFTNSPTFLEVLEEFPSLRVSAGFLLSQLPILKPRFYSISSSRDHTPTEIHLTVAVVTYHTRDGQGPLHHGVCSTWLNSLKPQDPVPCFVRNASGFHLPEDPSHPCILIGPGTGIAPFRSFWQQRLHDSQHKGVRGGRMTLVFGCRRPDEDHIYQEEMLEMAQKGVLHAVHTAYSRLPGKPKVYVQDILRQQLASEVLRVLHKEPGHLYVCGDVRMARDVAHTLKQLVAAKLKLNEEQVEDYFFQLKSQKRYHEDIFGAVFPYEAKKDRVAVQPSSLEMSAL

Which results are given for `CC1=CC(N)=NCC1`?
IC50 [1]: 0.7 µM; IC50 [2]: 0.44 µM
